The source made the active and inactive calls. No cut-off for these calls is given here.
How the values were obtained:
Mus musculus [1] = test: Toxicity in BALB/c nude mouse xenografted with human HT-29 cells assessed as hematuria at 80 mg/kg/day administered qd measured up to day 21; assay type: organism-based; settings: in vivo
Mus musculus [2] = test: Toxicity in BALB/c nude mouse xenografted with human HT-29 cells assessed as bloody stool at 80 mg/kg/day administered qd measured up to day 21; assay type: organism-based; settings: in vivo
Mus musculus [3] = test: Toxicity in BALB/c nude mouse xenografted with human HT-29 cells assessed as severe weight loss at 80 mg/kg/day administered qd; assay type: organism-based; settings: in vivo
Mus musculus [4] = test: Toxicity in BALB/c nude mouse xenografted with human NCI-H460 cells assessed as hematuria at 40 mg/kg/day administered qd; assay type: organism-based; settings: in vivo
Mus musculus [5] = test: Toxicity in BALB/c nude mouse xenografted with human NCI-H460 cells assessed as severe weight loss at 40 mg/kg/day administered qd; assay type: organism-based; settings: in vivo
Aorta = test: Inhibition of micrangium generation in Sprague-Dawley rat aortic ring at 0.2 ug/ml after 6 days by inverted microscopic analysis; assay type: functional, tissue-based
HT-29 = test: Antitumor activity against human HT-29 cells xenografted in BALB/c nude mouse assessed as tumor growth inhibition at 80 mg/kg/day administered qd measured up to day 21 relative to control; assay type: functional; design: scale not given: the % may be the effect or the level left
[6] = Antiproliferative activity against human LO2 cells after 72 hrs by MTT assay; assay type: cell-based; settings: L02, 72 h
NCI-H460 [7] = test: Antitumor activity against human NCI-H460 cells xenografted in BALB/c nude mouse assessed as tumor growth inhibition at 40 mg/kg/day administered qd measured up to day 21 relative to control; assay type: functional; settings: NCI-H460, 504 h, read-out: TGI
Mus musculus [8] = test: Toxicity in BALB/c nude mouse xenografted with human HT-29 cells assessed as change in body weight at 80 mg/kg/day administered qd relative to control; assay type: organism-based; settings: in vivo
Mus musculus [9] = test: Toxicity in BALB/c nude mouse xenografted with human NCI-H460 cells assessed as change in body weight at 40 mg/kg/day administered qd relative to control; assay type: organism-based; settings: in vivo
[10] = Solubility of the compound in water; assay type: physicochemical; settings: buffer
[11] = biological target: Voltage-gated inwardly rectifying potassium channel KCNH2 (Homo sapiens, UniProt Q12809); test: Inhibition of human ERG
[12] = biological target: T1, Vascular endothelial growth factor receptor 3 (Homo sapiens, UniProt P35916); test: Binding affinity to VEGFR3 (unknown origin)
[13] = biological target: Receptor-type tyrosine-protein kinase FLT3 (Homo sapiens, UniProt P36888); test: Binding affinity to FLT3 (unknown origin)
[14] = biological target: T2, Platelet-derived growth factor receptor beta (Homo sapiens, UniProt P09619); test: Binding affinity to PDGFR-beta (unknown origin)
[15] = biological target: Vascular endothelial growth factor receptor 1 (Homo sapiens, UniProt P17948); test: Binding affinity to VEGFR1 (unknown origin)
[16] = biological target: T3, Proto-oncogene tyrosine-protein kinase receptor Ret (Homo sapiens, UniProt P07949); test: Binding affinity to RET (unknown origin)
[17] = biological target: ALK tyrosine kinase receptor (Homo sapiens, UniProt Q9UM73); test: Binding affinity to ALK (unknown origin)
[18] = biological target: Serine/threonine-protein kinase Chk1 (Homo sapiens, UniProt O14757); test: Binding affinity to CHK1 (unknown origin)
[19] = biological target: T4, Tyrosine-protein kinase ABL1 (Homo sapiens, UniProt P00519); test: Binding affinity to ABL (unknown origin)
[20] = biological target: Tyrosine-protein kinase ABL2 (Homo sapiens, UniProt P42684); test: Binding affinity to ARG (unknown origin)
[21] = biological target: T5, Macrophage colony-stimulating factor 1 receptor (Homo sapiens, UniProt P07333); test: Binding affinity to FMS (unknown origin)
[22] = biological target: T6, Protein-tyrosine kinase 2-beta (Homo sapiens, UniProt Q14289); test: Binding affinity to PYK2 (unknown origin)
[23] = biological target: T7, Fibroblast growth factor receptor 1 (Homo sapiens, UniProt P11362); test: Binding affinity to FGFR1 (unknown origin)
Focal adhesion kinase 1 [24] = biological target: T8, Focal adhesion kinase 1 (Homo sapiens, UniProt Q05397); test: Binding affinity to FAK (unknown origin)
[25] = biological target: Phosphorylase b kinase gamma catalytic chain, liver/testis isoform (Homo sapiens, UniProt P15735); test: Binding affinity to PHKgamma2 (unknown origin)
[26] = biological target: Tyrosine-protein kinase Fyn (Homo sapiens, UniProt P06241); test: Binding affinity to FYN (unknown origin)
[27] = biological target: Receptor-type tyrosine-protein kinase FLT3 (Homo sapiens) (UniProt P36888); test: Inhibition of FLT3 (unknown origin) at 1 uM relative to control
[28] = biological target: T2, Platelet-derived growth factor receptor beta; test: Inhibition of PDGFR-beta (unknown origin) at 1 uM relative to control
[29] = biological target: Serine/threonine-protein kinase Chk1 (Homo sapiens) (UniProt O14757); test: Inhibition of CHK1 (unknown origin) at 1 uM relative to control
[30] = biological target: T4, Tyrosine-protein kinase ABL1; test: Inhibition of ABL (unknown origin) at 1 uM relative to control
[31] = biological target: T5, Macrophage colony-stimulating factor 1 receptor; test: Inhibition of FMS (unknown origin) at 1 uM relative to control
[32] = biological target: T6, Protein-tyrosine kinase 2-beta; test: Inhibition of PYK2 (unknown origin) at 1 uM relative to control
[33] = biological target: T7, Fibroblast growth factor receptor 1; test: Inhibition of FGFR1 (unknown origin) at 1 uM relative to control
Focal adhesion kinase 1 [34] = biological target: T8, Focal adhesion kinase 1; test: Inhibition of FAK (unknown origin) at 1 uM relative to control
[35] = biological target: Phosphorylase b kinase gamma catalytic chain, liver/testis isoform (Homo sapiens) (UniProt P15735); test: Inhibition of PHKgamma2 (unknown origin) at 1 uM relative to control
NCI-H460 [36] = test: Antiproliferative activity against human NCI-H460 cells after 72 hrs by MTT assay; assay type: functional, cell-based; settings: NCI-H460, 72 h
NCI-H526 = test: Antiproliferative activity against human NCI-H526 cells after 72 hrs by MTT assay; assay type: functional, cell-based; settings: NCI-H526, 72 h
[37] = Antiproliferative activity against human NCI-H3122 cells after 72 hrs by MTT assay; assay type: functional, cell-based; settings: NCI-H3122, 72 h
[38] = Antiproliferative activity against human Bel7402 cells after 72 hrs by MTT assay; assay type: functional, cell-based; settings: Bel-7402, 72 h
[39] = Antiproliferative activity against human HK2 cells after 72 hrs by MTT assay; assay type: cell-based; settings: HK-2, 72 h
[40] = biological target: T1, Vascular endothelial growth factor receptor 3; settings: 1 uM
Description: Inhibition of VEGFR3 (unknown origin) at 1 uM relative to control

[41] = biological target: Vascular endothelial growth factor receptor 2 (Homo sapiens, UniProt P35968); settings: 1 uM
Description: Inhibition of VEGFR2 (unknown origin) at 1 uM relative to control

[42] = biological target: T3, Proto-oncogene tyrosine-protein kinase receptor Ret; settings: 1 uM
Description: Inhibition of RET (unknown origin) at 1 uM relative to control

[43] = biological target: Fibroblast growth factor receptor 3 (Homo sapiens, UniProt P22607); settings: 1 uM
Description: Inhibition of FGFR3 (unknown origin) at 1 uM relative to control

[44] = biological target: Mast/stem cell growth factor receptor Kit (Homo sapiens, UniProt P10721); settings: 1 uM
Description: Inhibition of c-KIT (unknown origin) at 1 uM relative to control

T2 sequence (P09619 whole entry): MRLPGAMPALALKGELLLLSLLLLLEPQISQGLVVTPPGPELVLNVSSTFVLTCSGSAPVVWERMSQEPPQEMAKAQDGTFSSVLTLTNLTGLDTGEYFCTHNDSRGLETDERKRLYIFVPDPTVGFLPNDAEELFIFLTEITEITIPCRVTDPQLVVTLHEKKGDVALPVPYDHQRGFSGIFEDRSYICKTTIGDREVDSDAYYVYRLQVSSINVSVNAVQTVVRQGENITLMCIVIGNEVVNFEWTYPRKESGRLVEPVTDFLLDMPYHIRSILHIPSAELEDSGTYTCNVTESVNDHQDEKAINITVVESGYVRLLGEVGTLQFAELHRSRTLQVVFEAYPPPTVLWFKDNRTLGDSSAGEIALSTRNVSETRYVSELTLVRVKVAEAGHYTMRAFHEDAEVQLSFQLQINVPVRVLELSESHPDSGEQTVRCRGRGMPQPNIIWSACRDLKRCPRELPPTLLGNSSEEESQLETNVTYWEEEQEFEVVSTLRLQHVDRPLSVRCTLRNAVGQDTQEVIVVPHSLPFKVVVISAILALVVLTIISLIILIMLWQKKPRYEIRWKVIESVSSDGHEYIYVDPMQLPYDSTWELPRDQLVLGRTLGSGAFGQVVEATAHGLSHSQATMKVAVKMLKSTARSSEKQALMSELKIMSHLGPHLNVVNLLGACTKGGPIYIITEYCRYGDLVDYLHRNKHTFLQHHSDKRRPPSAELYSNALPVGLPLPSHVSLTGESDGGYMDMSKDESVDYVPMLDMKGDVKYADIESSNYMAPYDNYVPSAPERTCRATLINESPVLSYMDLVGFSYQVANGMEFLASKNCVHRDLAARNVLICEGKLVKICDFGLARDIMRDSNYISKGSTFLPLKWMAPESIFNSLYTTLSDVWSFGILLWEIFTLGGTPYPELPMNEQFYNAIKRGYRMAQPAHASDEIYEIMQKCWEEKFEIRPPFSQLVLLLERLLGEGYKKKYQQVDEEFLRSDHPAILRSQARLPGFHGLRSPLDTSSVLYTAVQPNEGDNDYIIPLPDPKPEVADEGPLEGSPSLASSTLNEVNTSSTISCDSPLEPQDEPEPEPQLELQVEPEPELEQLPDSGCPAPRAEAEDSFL
T3 sequence (P07949 whole entry): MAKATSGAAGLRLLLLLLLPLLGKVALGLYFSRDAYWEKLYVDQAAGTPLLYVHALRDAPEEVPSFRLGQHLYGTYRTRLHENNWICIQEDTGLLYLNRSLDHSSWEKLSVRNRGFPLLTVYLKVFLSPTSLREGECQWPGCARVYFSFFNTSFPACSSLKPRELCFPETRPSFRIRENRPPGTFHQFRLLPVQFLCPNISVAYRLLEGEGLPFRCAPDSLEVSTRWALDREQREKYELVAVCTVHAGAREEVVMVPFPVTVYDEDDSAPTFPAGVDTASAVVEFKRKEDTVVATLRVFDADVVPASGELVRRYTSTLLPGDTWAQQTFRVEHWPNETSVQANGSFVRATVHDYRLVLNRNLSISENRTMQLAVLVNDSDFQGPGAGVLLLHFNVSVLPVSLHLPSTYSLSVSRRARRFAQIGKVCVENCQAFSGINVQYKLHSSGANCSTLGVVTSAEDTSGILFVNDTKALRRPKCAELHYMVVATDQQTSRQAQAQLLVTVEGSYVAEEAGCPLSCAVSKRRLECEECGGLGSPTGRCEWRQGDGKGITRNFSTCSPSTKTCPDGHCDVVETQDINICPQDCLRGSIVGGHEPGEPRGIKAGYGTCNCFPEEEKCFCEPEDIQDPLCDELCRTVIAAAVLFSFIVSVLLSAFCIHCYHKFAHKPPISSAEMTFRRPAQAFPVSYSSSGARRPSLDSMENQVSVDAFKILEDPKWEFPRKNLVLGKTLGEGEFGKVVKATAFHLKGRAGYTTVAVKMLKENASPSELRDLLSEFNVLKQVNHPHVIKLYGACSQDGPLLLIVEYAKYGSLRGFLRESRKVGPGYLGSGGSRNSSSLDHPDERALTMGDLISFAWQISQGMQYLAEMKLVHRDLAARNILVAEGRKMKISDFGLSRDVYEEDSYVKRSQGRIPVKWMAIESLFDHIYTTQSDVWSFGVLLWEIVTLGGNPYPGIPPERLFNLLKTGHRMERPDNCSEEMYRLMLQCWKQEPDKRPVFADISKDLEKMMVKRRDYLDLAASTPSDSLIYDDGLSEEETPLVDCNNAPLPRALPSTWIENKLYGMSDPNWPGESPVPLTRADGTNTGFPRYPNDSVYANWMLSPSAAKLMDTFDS
T1 sequence (P35916 whole entry): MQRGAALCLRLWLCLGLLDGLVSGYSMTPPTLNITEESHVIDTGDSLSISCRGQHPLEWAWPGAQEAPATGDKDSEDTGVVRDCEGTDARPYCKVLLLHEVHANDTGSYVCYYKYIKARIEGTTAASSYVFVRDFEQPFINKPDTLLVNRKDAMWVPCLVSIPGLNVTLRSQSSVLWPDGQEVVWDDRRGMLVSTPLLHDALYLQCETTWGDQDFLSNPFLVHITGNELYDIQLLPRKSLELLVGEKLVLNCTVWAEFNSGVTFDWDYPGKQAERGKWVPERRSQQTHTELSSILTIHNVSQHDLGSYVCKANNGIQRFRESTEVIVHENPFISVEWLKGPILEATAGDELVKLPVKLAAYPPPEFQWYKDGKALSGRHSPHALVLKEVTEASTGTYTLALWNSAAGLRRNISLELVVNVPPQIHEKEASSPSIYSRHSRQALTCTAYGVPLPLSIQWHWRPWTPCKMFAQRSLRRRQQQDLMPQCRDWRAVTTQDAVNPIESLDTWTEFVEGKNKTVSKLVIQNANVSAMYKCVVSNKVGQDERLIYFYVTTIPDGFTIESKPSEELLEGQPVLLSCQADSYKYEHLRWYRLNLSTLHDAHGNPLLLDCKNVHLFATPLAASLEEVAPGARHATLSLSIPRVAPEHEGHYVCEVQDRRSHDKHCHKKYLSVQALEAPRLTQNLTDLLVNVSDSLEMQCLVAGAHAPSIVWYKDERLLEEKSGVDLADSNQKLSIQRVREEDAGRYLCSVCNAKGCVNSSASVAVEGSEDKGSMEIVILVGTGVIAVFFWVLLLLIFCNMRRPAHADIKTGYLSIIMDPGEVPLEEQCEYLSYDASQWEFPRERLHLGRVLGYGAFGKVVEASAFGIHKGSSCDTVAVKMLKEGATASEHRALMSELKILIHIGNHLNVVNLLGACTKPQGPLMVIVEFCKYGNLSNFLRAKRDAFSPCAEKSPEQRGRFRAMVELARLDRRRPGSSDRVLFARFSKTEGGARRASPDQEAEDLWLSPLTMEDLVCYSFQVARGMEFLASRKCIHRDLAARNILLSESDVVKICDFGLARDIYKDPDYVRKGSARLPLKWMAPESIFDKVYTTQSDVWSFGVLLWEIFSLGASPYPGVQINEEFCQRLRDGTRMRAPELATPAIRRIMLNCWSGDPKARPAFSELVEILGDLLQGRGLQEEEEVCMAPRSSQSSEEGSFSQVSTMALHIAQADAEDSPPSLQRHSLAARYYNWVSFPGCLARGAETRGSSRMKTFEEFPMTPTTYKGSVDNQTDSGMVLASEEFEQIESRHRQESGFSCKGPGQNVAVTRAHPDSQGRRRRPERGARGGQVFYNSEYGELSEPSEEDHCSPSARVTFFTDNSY
T5 sequence (P07333 whole entry): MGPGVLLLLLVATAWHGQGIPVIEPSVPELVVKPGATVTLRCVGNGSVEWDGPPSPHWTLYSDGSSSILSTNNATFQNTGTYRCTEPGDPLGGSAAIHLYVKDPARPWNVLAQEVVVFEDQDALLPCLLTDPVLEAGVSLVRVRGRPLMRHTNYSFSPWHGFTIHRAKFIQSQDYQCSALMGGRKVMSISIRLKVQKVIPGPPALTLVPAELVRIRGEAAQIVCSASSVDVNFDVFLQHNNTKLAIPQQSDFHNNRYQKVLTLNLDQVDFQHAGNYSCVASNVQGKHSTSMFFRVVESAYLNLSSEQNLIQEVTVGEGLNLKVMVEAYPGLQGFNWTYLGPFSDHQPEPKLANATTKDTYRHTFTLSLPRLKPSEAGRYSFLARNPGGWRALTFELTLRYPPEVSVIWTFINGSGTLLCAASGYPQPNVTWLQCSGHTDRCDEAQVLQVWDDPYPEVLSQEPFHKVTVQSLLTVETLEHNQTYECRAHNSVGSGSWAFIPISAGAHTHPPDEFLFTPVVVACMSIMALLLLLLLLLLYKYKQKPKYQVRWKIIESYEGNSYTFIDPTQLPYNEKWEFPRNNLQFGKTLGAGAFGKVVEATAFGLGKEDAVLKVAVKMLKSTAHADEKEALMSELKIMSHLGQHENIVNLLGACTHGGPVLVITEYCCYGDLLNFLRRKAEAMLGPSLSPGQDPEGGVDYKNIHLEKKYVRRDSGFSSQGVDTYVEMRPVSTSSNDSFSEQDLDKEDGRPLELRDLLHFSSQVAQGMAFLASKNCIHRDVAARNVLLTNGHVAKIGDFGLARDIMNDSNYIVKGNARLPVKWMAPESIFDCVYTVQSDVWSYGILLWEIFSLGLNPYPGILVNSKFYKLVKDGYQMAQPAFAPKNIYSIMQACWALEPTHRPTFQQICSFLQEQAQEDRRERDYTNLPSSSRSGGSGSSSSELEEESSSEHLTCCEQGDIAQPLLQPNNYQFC
Sequence of Tyrosine-protein kinase Fyn (P06241 whole entry): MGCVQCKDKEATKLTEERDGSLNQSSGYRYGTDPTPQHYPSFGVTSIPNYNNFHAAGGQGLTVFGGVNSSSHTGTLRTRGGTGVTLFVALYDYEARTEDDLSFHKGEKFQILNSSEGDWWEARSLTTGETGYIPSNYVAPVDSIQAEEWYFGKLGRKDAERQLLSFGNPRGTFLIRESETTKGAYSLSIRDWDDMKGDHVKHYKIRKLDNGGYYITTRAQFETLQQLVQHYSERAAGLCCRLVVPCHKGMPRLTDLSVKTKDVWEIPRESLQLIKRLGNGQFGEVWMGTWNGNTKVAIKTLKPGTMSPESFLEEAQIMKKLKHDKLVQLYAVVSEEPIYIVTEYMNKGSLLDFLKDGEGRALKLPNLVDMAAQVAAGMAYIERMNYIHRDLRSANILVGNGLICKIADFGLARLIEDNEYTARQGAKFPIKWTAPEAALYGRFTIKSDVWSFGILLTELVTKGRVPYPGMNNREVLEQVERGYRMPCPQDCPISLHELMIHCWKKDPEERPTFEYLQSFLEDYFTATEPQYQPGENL

Question: Which Activity (Mus musculus [1]) does the source give for `Cc1[nH]c(/C=C2\C(=O)Nc3ccc(F)cc32)c(C)c1NC(=O)CCN1CCN(C)CC1` here?
Answer: Its Activity is “Non-toxic”.

Question: What about the Activity (Mus musculus [2]) of the same molecule?
Answer: Its Activity is “Non-toxic”.

Question: What about the Activity (Mus musculus [3]) of the same molecule?
Answer: The Activity was “Non-toxic”.

Question: And the Activity (Mus musculus [4])?
Answer: The Activity was “Non-toxic”.

Question: What about the Activity (Mus musculus [5]) of the same molecule?
Answer: Its Activity is “Non-toxic”.

Question: What about the inhibition (Aorta) of the same molecule?
Answer: The inhibition was “Active”.

Question: What about the Activity (HT-29) of the same molecule?
Answer: The Activity was 84.7%.

Question: And the IC50 [6]?
Answer: Its IC50 is 41400 nM.

Question: What about the inhibition in vivo at 40 mg/kg/day (NCI-H460 [7]) of the same molecule?
Answer: Its inhibition in vivo at 40 mg/kg/day is 60.6%.

Question: What about the Activity (Mus musculus [8]) of the same molecule?
Answer: Its Activity is 6.2%.

Question: And the Activity (Mus musculus [9])?
Answer: Its Activity is 1.4%.

Question: What about the solubility [10] of the same molecule?
Answer: The solubility was “soluble”.

Question: And the IC50 [11]?
Answer: Its IC50 is 18800 nM.

Question: What about the Ki [12] of the same molecule?
Answer: Its Ki is under 0.3 nM.

Question: And the Ki [13]?
Answer: The Ki was under 0.3 nM.

Question: What about the Ki [14] of the same molecule?
Answer: Its Ki is 19 nM.

Question: What about the Ki [15] of the same molecule?
Answer: The Ki was 1100 nM.

Question: And the Ki [16]?
Answer: The Ki was 18 nM.

Question: And the Ki [17]?
Answer: Its Ki is 95 nM.

Question: What about the Ki [18] of the same molecule?
Answer: Its Ki is 110 nM.

Question: And the Ki [19]?
Answer: The Ki was 120 nM.

Question: And the Ki [20]?
Answer: Its Ki is 180 nM.

Question: And the Ki [21]?
Answer: The Ki was 230 nM.

Question: What about the Ki [22] of the same molecule?
Answer: Its Ki is 340 nM.

Question: And the Ki [23]?
Answer: Its Ki is 350 nM.

Question: What about the Ki (Focal adhesion kinase 1 [24]) of the same molecule?
Answer: The Ki was 530 nM.

Question: What about the Ki [25] of the same molecule?
Answer: Its Ki is 840 nM.

Question: What about the Ki [26] of the same molecule?
Answer: Its Ki is 1800 nM.

Question: What about the inhibition [27] of the same molecule?
Answer: Its inhibition is 100%.

Question: What about the inhibition [28] of the same molecule?
Answer: The inhibition was 79%.

Question: And the inhibition [29]?
Answer: The inhibition was 76%.

Question: And the inhibition [30]?
Answer: Its inhibition is 93%.

Question: What about the inhibition [31] of the same molecule?
Answer: Its inhibition is 84%.

Question: What about the inhibition [32] of the same molecule?
Answer: Its inhibition is 72%.

Question: And the inhibition [33]?
Answer: Its inhibition is 71%.

Question: What about the inhibition (Focal adhesion kinase 1 [34]) of the same molecule?
Answer: Its inhibition is 66%.

Question: And the inhibition [35]?
Answer: Its inhibition is 51%.

Question: And the IC50 (NCI-H460 [36])?
Answer: Its IC50 is 6110 nM.

Question: What about the IC50 (NCI-H526) of the same molecule?
Answer: The IC50 was 20600 nM.

Question: What about the IC50 [37] of the same molecule?
Answer: Its IC50 is 17100 nM.

Question: And the IC50 [38]?
Answer: The IC50 was 14700 nM.

Question: And the IC50 [39]?
Answer: The IC50 was 6850 nM.

Question: And the inhibition [40]?
Answer: The inhibition was 99%.

Question: What about the inhibition [41] of the same molecule?
Answer: Its inhibition is 99%.

Question: And the inhibition [42]?
Answer: Its inhibition is 99%.

Question: What about the inhibition [43] of the same molecule?
Answer: The inhibition was 91%.

Question: What about the inhibition [44] of the same molecule?
Answer: The inhibition was 87%.
